{"source": "patent US20230030915A1", "about": "“Pet Food Compositions” (Hill's Pet Nutrition, Inc., priority 2019, published 2023)", "origin": "cited, not measured here", "tested_on": "piglets", "data": [{"smiles": "C[N+](C)(C)CC(=O)O", "note": "[Betaine, Glycine betaine]", "values": [{"measurement": "margin of safety", "setting": "at 2 000 mg/kg complete feed", "value": "below 5"}, {"measurement": "maximum supplementation rate at which safe", "setting": "via feed", "value": "2 000 mg/kg complete feed"}]}]}
